From paper PMC5059724, “Purification and characterization of a novel phloretin-2′-O-glycosyltransferase favoring phloridzin biosynthesis” (Scientific Reports, 2016)
Values belong to the compound of their own block, whether it stands above or below them.

Key:
MdP2′GT [1] = molecular target: MdP2′GT (Malus domestica, UniProt A0A0X9XIE3); assay: Effects of metal ions and other compounds on purified MdP2′GT activity; type: biochemical, Malus x domestica; set-up: key to IC50: ND: no effects detected at selected concentrations; Activator: additions increased MdP2′GT activity at selected concentrations; details: for Effect of co-solvent on enzyme activity: 20% co-solvent
MdP2′GT [2] = molecular target: T1, MdP2′GT (Malus domestica, UniProt A0A0X9XIE3); assay: Inhibition of phloridzin formation by purified MdP2′GT from 270 uM UDPG and 20 uM phloretin, 50 mM Tris/HCl pH 7.5, 5 mM DTT, 30 °C, 30 min, product quantified by HPLC-DAD.; type: biochemical
T1 construct: gene P2'GT
T1 sequence (A0A0X9XIE3 1-483): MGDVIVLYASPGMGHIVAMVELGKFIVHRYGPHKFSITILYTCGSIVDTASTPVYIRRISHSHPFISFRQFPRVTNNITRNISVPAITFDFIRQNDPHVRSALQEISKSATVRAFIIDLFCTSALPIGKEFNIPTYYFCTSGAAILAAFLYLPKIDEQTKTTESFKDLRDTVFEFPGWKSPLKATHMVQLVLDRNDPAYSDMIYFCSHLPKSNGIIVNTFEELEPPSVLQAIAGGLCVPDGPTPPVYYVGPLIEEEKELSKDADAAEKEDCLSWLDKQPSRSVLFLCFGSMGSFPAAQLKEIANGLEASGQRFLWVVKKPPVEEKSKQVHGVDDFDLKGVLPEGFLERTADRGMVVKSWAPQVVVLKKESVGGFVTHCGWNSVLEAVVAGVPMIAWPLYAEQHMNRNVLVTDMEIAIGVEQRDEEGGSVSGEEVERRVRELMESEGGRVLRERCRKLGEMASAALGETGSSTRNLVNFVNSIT

UGT88F1 = system: T2, UGT88F1; assay: Literature Km for 2′-OH glycosylation of phloretin with the UDPG/phloretin combination, quoted in the comparison table.; type: biochemical; details: read-out: Km (μM), reported P2′GTs; cited from earlier work
T2 construct: literature enzyme, MW 59 kDa
Source text: (§1) Table 5 Enzyme characters and Kinetic parameters of MdP2′GT and reported P2′GTs. | Km (μM), reported P2′GTs

UGT71A15 = system: T3, UGT71A15; assay: as above; type: biochemical; details: read-out: Km (μM), reported P2′GTs; cited from earlier work
T3 construct: literature enzyme, MW 52 kDa
Source text: as §1

[3] = molecular target: Phloretin-2′-O-glycosyltransferase of Malus x domestica (MdP2′GT) (Malus x domestica); assay: SEC; Sephacryl S-300 column, 5 mg/ml purified MdP2′GT, buffer D (50 mM Tris-HCl pH 7.5, 200 mM NaCl, 5 mM DTT), calibrated with five marker proteins; native protein and protein deglycosylated with PNGase F or Endo H under native conditions; mass confirmed by MALDI-TOF
[4] = 0.5 h, pH 7.5, addition at 5 mM, compared to a control in which none is added, read-out: Relative activity
[5] = addition at 5 mM, compared to a control in which none is added
[6] = addition at 0.5 mM, compared to a control in which none is added
[7] = concentration of inhibitor required to reduce the original MdP2′GT activity by 50%, read-out: IC50
[8] = concentration of inhibitor required to reduce the original MdP2′GT activity by 50%

Compound: O[C@@H](CS)[C@@H](O)CS (racemic) [Dithiothreitol]
activity at 5000 µM (MdP2′GT [1]; [4]): 99.2 ± 1.43%
Relative activity (MdP2′GT [1]; [5]): No obvious effects

Compound: O=C(CCc1ccc(O)c(O)c1)c1c(O)cc(O)cc1O[C@@H]1O[C@H](CO)[C@@H](O)[C@H](O)[C@H]1O [3-hydroxyphloridzin, 3-hydroxyphloridzin]
Relative activity (MdP2′GT [1]; [5]): 15.65 ± 0.58%

Compound: O=C(CCc1ccc(O)c(O)c1)c1c(O)cc(O)cc1O[C@@H]1O[C@H](CO)[C@@H](O)[C@H](O)[C@H]1O [3-hydroxyphloridzin]
IC50 (MdP2′GT [2]; read-out: IC50/): 2.5 ± 0.2 mM

Compound: NCCc1ccc(S(=O)(=O)F)cc1 [AEBSF, 4-(2-Aminoethyl) benzenesulfonyl fluoride]
Relative activity (MdP2′GT [1]; [6]): No obvious effects
Relative activity (MdP2′GT [1]; addition at 0.5 mM, compared to a control in which none is added, 30 min, 500 µM): 99.51 ± 2.36%

Compound: [Cl][Al]([Cl])[Cl] [AlCl3]
Relative activity (MdP2′GT [1]; [5]): 67.81 ± 1.03%
Relative activity (MdP2′GT [1]; addition at 5 mM, compared to a control in which none is added, listed as Al^3+): partially inhibited
IC50 (MdP2′GT [1]; [7]): 8 ± 0.5 mM

Compound: [Ba+2].[Cl-].[Cl-] [BaCl2]
Relative activity (MdP2′GT [1]; [6]): negligibly affected
Relative activity (MdP2′GT [1]; [5]): 99.03 ± 2.54%

Compound: [Ca+2].[Cl-].[Cl-] [CaCl2]
Relative activity (MdP2′GT [1]; [5]): 54.21 ± 1.05%
Relative activity (MdP2′GT [1]; addition at 5 mM, compared to a control in which none is added, listed as Ca^2+): partially inhibited
IC50 (MdP2′GT [1]; [7]): 5.5 ± 0.12 mM

Compound: [Cl-].[Cl-].[Co+2] [CoCl2]
IC50 (MdP2′GT [1]; read-out: IC50): 0.05 ± 0.01 mM

Compound: [Cl][Cu][Cl] [CuCl2]
Relative activity (MdP2′GT [1]; [5]): 0.00 ± 0.00%
Relative activity (MdP2′GT [1]; addition at 5 mM, compared to a control in which none is added, listed as Cu^2+): completely inhibited
IC50 (MdP2′GT [1]; [7]): 0.01 ± 0.01 mM

Compound: C[S+](C)[O-] [Dimethyl sulfoxide]
Effect of co-solvent on enzyme activity (MdP2′GT [1]): no effects
Relative activity (MdP2′GT [1]; addition at 704 mM, compared to a control in which none is added): 99.54 ± 1.40%

Compound: [Cl][Fe]([Cl])[Cl] [FeCl3]
IC50 (MdP2′GT [1]; [7]): 6.5 ± 0.23 mM

Compound: [Cl-].[K+] [KCl]
Relative activity (MdP2′GT [1]; [6]): negligibly affected
Relative activity (MdP2′GT [1]; [5]): 99.58 ± 2.31%

Compound: CO [Methanol]
Effect of co-solvent on enzyme activity (MdP2′GT [1]): no effects
Relative activity (MdP2′GT [1]; addition at 1236 mM, compared to a control in which none is added): 99.23 ± 1.41%

Compound: [Cl-].[Cl-].[Mg+2] [MgCl2]
Relative activity (MdP2′GT [1]; addition at 2 mM, compared to a control in which none is added): 130.35 ± 3.53%
Relative activity (MdP2′GT [1]; addition at 2 mM, compared to a control in which none is added, listed as Mg^2+): 130%
IC50 (MdP2′GT [1]; [8]): Activator

Compound: CCN1C(=O)C=CC1=O [N-Ethylmaleimide]
activity at 1000 µM (MdP2′GT [1]; 0.5 h, pH 7.5, addition at 1 mM, compared to a control in which none is added, read-out: Relative activity): 20.5 ± 1.08%
Relative activity (MdP2′GT [1]; addition at 1 mM, compared to a control in which none is added): strong inhibition
IC50 (MdP2′GT [1]; [7]): 0.28 ± 0.01 mM

Compound: [Cl-].[Na+] [NaCl, Sodium chloride]
Relative activity (MdP2′GT [1]; addition at 500 mM, compared to a control in which none is added): 100 ± 1.00%
Relative activity (MdP2′GT [1]; addition at 500 mM, compared to a control in which none is added, listed as Sodium chloride): no obvious inhibitory effects

Compound: [Cl][Ni][Cl] [NiCl2]
Relative activity (MdP2′GT [1]; [6]): negligibly affected
Relative activity (MdP2′GT [1]; [5]): 98.26 ± 2.08%

Compound: O=C(CCc1ccc(O)cc1)c1c(O)cc(O)cc1O [Phloretin, phloretin]
Km (UGT88F1): 0.62 µM
Km (UGT71A15): 82 µM

Compound: O=c1ccn([C@@H]2O[C@H](COP(=O)(O)O)[C@@H](O)[C@H]2O)c(=O)[nH]1 [UMP, uridine monophosphate]
IC50 (MdP2′GT [2]; read-out: IC50/): 4 ± 0.13 mM
Relative activity (MdP2′GT [1]; [5]): 38.25 ± 1.07%

Compound: O=c1ccn([C@@H]2O[C@H](CO)[C@@H](O)[C@H]2O)c(=O)[nH]1 [Uridine]
activity at 5000 µM (MdP2′GT [1]; [4]): 98.2 ± 2.12%

Compound: O=C(O)c1cc[c]([Hg+])cc1 [p-hydroxymercuribenzoate, p-hydroxymercuribenzoate (PHMB)]
IC50 (MdP2′GT [2]): 0.24 ± 0.07 mM

Compound: p-hydroxymercuribenzoate
IC50 (MdP2′GT [1]; [7]): 0.24 ± 0.07 mM

Results, then the compound that gave them:

activity at 5000 µM (MdP2′GT [1]; [4]): 3.05 ± 0.26%
Compound: O=c1ccn([C@@H]2O[C@H](CO[P@@](=O)(O)O[P@@](=O)(O)OP(=O)(O)O)[C@@H](O)[C@H]2O)c(=O)[nH]1 (stereo in doubt) [UTP, uridine triphosphate]

Relative activity (MdP2′GT [1]; [5]): 119.43 ± 3.61%
IC50 (MdP2′GT [1]; [8]): Activator
Compound: O=S(=O)([O-])[O-].[Fe+2] [FeSO4]

activity at 686000 µM (MdP2′GT [1]; 0.5 h, pH 7.5, addition at 686 mM (text: 5% glycerol), compared to a control in which none is added, read-out: Relative activity): 98.1 ± 2.15%
Relative activity (MdP2′GT [1]; addition at 686 mM (text: 5% glycerol), compared to a control in which none is added): No obvious effects
Compound: OCC(O)CO [Glycerol]

Relative activity (MdP2′GT [1]; [5]): 47.41 ± 1.13%
Relative activity (MdP2′GT [1]; addition at 5 mM, compared to a control in which none is added, listed as Mn^2+): partially inhibited
IC50 (MdP2′GT [1]; [7]): 4.5 ± 0.11 mM
Compound: O=S(=O)([O-])[O-].[Mn+2] [MnSO4]

IC50 (MdP2′GT [2]; read-out: IC50/): 3 ± 0.21 mM
Compound: O=C(CCc1ccc(O)cc1)c1c(O)cc(O[C@@H]2O[C@H](CO)[C@@H](O)[C@H](O)[C@H]2O)cc1O [Trilobatin, trilobatin]

Relative activity (MdP2′GT [1]; [5]): 21.70 ± 1.15%
Compound: O=C(CCc1ccc(O)cc1)c1c(O)cc(O[C@@H]2O[C@H](CO)[C@@H](O)[C@H](O)[C@H]2O)cc1O [Trilobatin]

IC50 (MdP2′GT [2]; read-out: IC50/): 0.1 ± 0.01 mM
Compound: O=c1ccn([C@@H]2O[C@H](COP(=O)(O)OP(=O)(O)O)[C@@H](O)[C@H]2O)c(=O)[nH]1 [UDP, uridine diphosphate]

IC50 (MdP2′GT [1]; [7]): 2.5 ± 0.1 mM
Compound: O=c1ccn([C@@H]2O[C@H](COP(=O)(O)OP(=O)(O)OP(=O)(O)O)[C@@H](O)[C@H]2O)c(=O)[nH]1 [UTP, uridine triphosphate]

Relative activity (MdP2′GT [1]; [5]): 99.02 ± 1.47%
Relative activity (MdP2′GT [1]; addition at 5 mM, compared to a control in which none is added, listed as β-ME): No obvious effects
Compound: OCCS [β-mercaptoethanol]

stoichiometry N [3]: 2
Compound: Phloretin-2′-O-glycosyltransferase of Malus x domestica (MdP2′GT) (enzyme)
